Structures can show the parent of a compound that is named as a salt.

The target in the assay is T1, Insulin-like growth factor 2 receptor (IGF-1IR, cation-independent mannose-6-phosphate receptor, CI-MPR; hIGF-IIR) (Homo sapiens, UniProt P11717).
T1 construct: purchased R&D Systems 6418-GR
The assay can be described thus: HTRF-based ternary complex inhibition assay for relative affinity of IGF-IIR ligands. As to conditions: competition with MTAC probe for His-tagged hIGF-IIR; biotinylated IgG1; apparent binding affinity; read-out: TCF INH (HTRF) IC50. The procedure:
The apparent binding affinity of Insulin-like growth factor 2 receptor (IGF-1IR, also called the cation- independent mannose-6-phosphate receptor (CI-MPR)) ligands was determined indirectly by competing with a probe molecule for binding to IGF-1IR. The probe is a Mannose 6-Phosphate Ligand (“Ligand”) and binds to hIGF-IIR and IgG1 to form a hIGF-IIR: Ligand: IgG1 ternary complex. The ternary complex was detected by an HTRF readout. The ternary complex is disrupted in the presence of IGF-1IR ligand, resulting in decreased HTRF signal. IGF-1IR ligands of 3-fold dilution series were prepared from 10 mM DMSO stock on a 384-well LDV microplate using Echo Acoustic Liquid Handler (Beckman Coulter Life Sciences) followed by transfer of 600 nL of the solutions to an OptiPlate 384-well microplate (PerkinElmer, 6007290). Manose-6-phosphate (M6P; J&K, 530168) and glucose-6-phosphate (G6P; Sigma, V900924) were prepared from 100 mM stock in the same manner and were used as positive and negative controls, respectively. The wells used as 0% and 100% inhibition controls were prepared by adding 600 nL DMSO. 20 nL of 50 μM MTAC probe was transferred to all wells except the wells used as 100% Inhibition control. 9.4 μL working solution containing 65.1 nM of Biotinylated-IgG1 (Viva 20211108) and 65.1 nM of His-tagged hIGF-IIR (R&D Systems, 6418-GR) in assay buffer 50 mM Tris, pH 7.5, 150 mM NaCl, 50 mM CaCl2, 0.01% Tween-20 was transferred to all wells. The plate was incubated at room temperature for 60 min with gentle shaking to allow molecular interaction to reach equilibration. Following this, 10 μL of HTRF detection solution containing 15 nM Streptavidin-d2 (PerkinElmer, 610SADLA) and 0.7 nM MAb Anti 6HIS—Tb cryptate (PerkinElmer, 61HISTLA) in PPI Terbium detection buffer (PerkinElmer, 61DB10RDF) was added. The assay plate was incubated at room temperature with gentle shaking for 60 min to allow HTRF signal to develop. The plate was gently spun on a centrifuge then placed on a EnVision plate reader (Perkin Elmer, EnVision 2104) to read fluorescence ratio of 665 nm/615 nm. Percent inhibitions were calculated with this equation: % I=100* [1−(X−100% I/(0% I−100% I)] where X is the […] in the presence of IGF-1IR ligand. The apparent binding affinity (presented as IC50) was calculated by fitting the % inhibition data with a non-linear 4-parameter inhibition equation using GraphPad Prism (GraphPad Software, LLC; version 9.4.1).
Turning to `O=P(O)(O)CC[C@H]1OC(c2cc3c(cc2O)Cc2ccccc2-3)[C@@H](O)[C@@H](O)[C@@H]1O` (stereo partly drawn) [Compound A15, (2-((2R,3S,4S,5S)-3,4,5-trihydroxy-6-(2-hydroxy-9H-fluoren-3-yl)tetrahydro-2H-pyran-2-yl)ethyl)phosphonic acid], the half-inhibitory concentration (IC50) is less than 10 µM.
Turning to `COc1ccc(OC2O[C@H](CCP(=O)(O)CC(F)(F)F)[C@@H](O)[C@H](O)[C@@H]2O)cc1` (stereo partly drawn) [Compound A80, (2,2,2-trifluoroethyl) (2-((2R,3S,4S,5S)-3,4,5-trihydroxy-6-(4-methoxyphenoxy)tetrahydro-2H-pyran-2-yl)ethyl)phosphinic acid], the half-maximal inhibitory concentration (IC50) is 10 to 100 µM.
To `CC(=O)NS(=O)(=O)OC[C@H]1O[C@H](Oc2ccccc2)[C@@H](O)[C@@H](O)[C@@H]1O` [Compound A4, ((2R,3S,4S,5S,6R)-3,4,5-trihydroxy-6-phenoxytetrahydro-2H-pyran-2-yl)methyl acetylsulfamate] belongs 100 to 300 µM.
To `O=C(NS(=O)(=O)CC[C@H]1O[C@H](O)[C@@H](O)[C@@H](O)[C@@H]1O)c1ccno1` [Compound A11, N-((2-((2R,3S,4S,5S,6S)-3,4,5,6-tetrahydroxytetrahydro-2H-pyran-2-yl)ethyl)sulfonyl)isoxazole-5-carboxamide] belongs 10 to 100 µM; to `CC(C)(C)OC(=O)N1CCC(n2cc([C@H]3O[C@H](CCP(=O)(O)O)[C@@H](O)[C@H](O)[C@@H]3O)nn2)CC1` [Compound A85, (2-((2R,3S,4S,5S,6R)-6-(1-(1-(tert-butoxycarbonyl)piperidin-4-yl)-1H-1,2,3-triazol-4-yl)-3,4,5-trihydroxytetrahydro-2H-pyran-2-yl)ethyl)phosphonic acid], less than 10 µM.
Under `CS(=N)(=O)CC[C@H]1O[C@H](O)[C@@H](O)[C@@H](O)[C@@H]1O` (stereo partly drawn) [Compound A1, imino(methyl) (2-((2R,3S,4S,5S,6S)-3,4,5,6-tetrahydroxytetrahydro-2H-pyran-2-yl)ethyl)-16-sulfanone] stands less than 10 µM; under `O=P(O)(O)C1CC1[C@H]1O[C@H](Oc2ccccc2)[C@@H](O)[C@@H](O)[C@@H]1O` (stereo partly drawn) [Compound A43, [2-[(2R,3S,4S,5S,6R)-3,4,5-trihydroxy-6-phenoxy-tetrahydropyran-2-yl]cyclopropyl]phosphonic acid], 10 to 100 µM.
Turning to `Nc1ccc2c(c1)Cc1cc(O[C@H]3O[C@H](CCP(=O)(O)O)[C@@H](O)[C@H](O)[C@@H]3O)ccc1-2` [Compound A76, (2-((2R,3S,4S,5S,6R)-6-((7-amino-9H-fluoren-2-yl)oxy)-3,4,5-trihydroxytetrahydro-2H-pyran-2-yl)ethyl)phosphonic acid], the IC50 was less than 10 µM.
To `COc1ccc(OC2O[C@H](CCP(=O)(O)CC3CC3)[C@@H](O)[C@H](O)[C@@H]2O)cc1` (stereo partly drawn) [Compound A56, (cyclopropylmethyl) (2-((2R,3S,4S,5S)-3,4,5-trihydroxy-6-(4-methoxyphenoxy)tetrahydro-2H-pyran-2-yl)ethyl)phosphinic acid] belongs less than 10 µM; to `COc1ccc(OC2O[C@H](CCP(=O)(O)CC#C[Si](C)(C)C)[C@@H](O)[C@H](O)[C@@H]2O)cc1` (stereo partly drawn) [Compound A75, 2-[(2R,3S,4S,5S)-3,4,5-trihydroxy-6-(4-methoxyphenoxy)tetrahydropyran-2-yl]ethyl-(3-trimethylsilylprop-2-ynyl)phosphinic acid], 10 to 100 µM; to `NC[C@H]1O[C@H](O)[C@@H](O)[C@@H](O)[C@@H]1O` [Compound A41, (2S,3S,4S,5S,6R)-6-(aminomethyl)tetrahydro-2H-pyran-2,3,4,5-tetraol hydrochloride], 10 to 100 µM.
To `O=P(O)(O)CC[C@H]1O[C@H](/C=C/c2ccccc2)[C@@H](O)[C@@H](O)[C@@H]1O` [Compound A21, (2-((2R,3S,4S,5S,6R)-3,4,5-trihydroxy-6-((E)-styryl)tetrahydro-2H-pyran-2-yl)ethyl)phosphonic acid] belongs 10 to 100 µM; to `O=P(O)(O)CC[C@H]1O[C@H](Oc2ccc3c(c2)Cc2ccccc2-3)[C@@H](O)[C@@H](O)[C@@H]1O` [Compound A19, (2-((2R,3S,4S,5S,6R)-6-((9H-fluoren-2-yl)oxy)-3,4,5-trihydroxytetrahydro-2H-pyran-2-yl)ethyl)phosphonic acid], less than 10 µM; to `COc1ccc(OC2O[C@H](CCP(=O)(O)CC3CCCC3)[C@@H](O)[C@H](O)[C@@H]2O)cc1` (stereo partly drawn) [Compound A82, (cyclopentylmethyl) (2-((2R,3S,4S,5S)-3,4,5-trihydroxy-6-(4-methoxyphenoxy)tetrahydro-2H-pyran-2-yl)ethyl)phosphinic acid], less than 10 µM.
To `CO[C@H]1O[C@H](CCS(=O)(=O)Nc2ncccn2)[C@@H](O)[C@H](O)[C@@H]1O` [Compound A9, N-(pyrimidin-2-yl)-2-((2R,3S,4S,5S,6S)-3,4,5-trihydroxy-6-methoxytetrahydro-2H-pyran-2-yl)ethane-1-sulfonamide] belongs 100 to 300 µM; to `C#CCCOC1O[C@H](CCS(=O)(=O)Nc2ncccn2)[C@@H](O)[C@H](O)[C@@H]1O` (stereo partly drawn) [Compound A14, 2-((2R,3S,4S,5S)-6-(but-3-yn-1-yloxy)-3,4,5-trihydroxytetrahydro-2H-pyran-2-yl)-N-(pyrimidin-2-yl)ethane-1-sulfonamide], 100 to 300 µM.
Regarding `COC(=O)c1ccc(O[C@H]2O[C@H](CNc3c(O)c(=O)c3=O)[C@@H](O)[C@H](O)[C@@H]2O)cc1` [Compound A7, methyl 4-(((3S,4S,5S,6R)-3,4,5-trihydroxy-6-(((2-hydroxy-3,4-dioxocyclobut-1-en-1-yl)amino)methyl)tetrahydro-2H-pyran-2-yl)oxy)benzoate], the concentration for half-maximal inhibition (IC50) was in the range of 100 to 300 µM.
To `O=P(O)(CC[C@H]1O[C@H](OC2CCCCC2)[C@@H](O)[C@@H](O)[C@@H]1O)Cc1ccccc1O` [Compound A47, 2-[(2R,3S,4S,5S,6S)-6-(cyclohexoxy)-3,4,5-trihydroxy-tetrahydropyran-2-yl]ethyl-[(2-hydroxyphenyl)methyl]phosphinic acid] belongs 10 to 100 µM; to `COc1ccc(O[C@H]2O[C@H](CCP(=O)(O)Cc3c(F)cc(F)cc3F)[C@@H](O)[C@H](O)[C@@H]2O)cc1` [Compound A55, (2,4,6-trifluorobenzyl) (2-((2R,3S,4S,5S)-3,4,5-trihydroxy-6-(4-methoxyphenoxy)tetrahydro-2H-pyran-2-yl)ethyl)phosphinic acid], 10 to 100 µM.
To `O=P(O)(O)CC[C@H]1O[C@H](c2cn(-c3ccccc3)nn2)[C@@H](O)[C@@H](O)[C@@H]1O` [Compound A84, (2-((2R,3S,4S,5S,6R)-3,4,5-trihydroxy-6-(1-phenyl-1H-1,2,3-triazol-4-yl)tetrahydro-2H-pyran-2-yl)ethyl)phosphonic acid] belongs less than 10 µM; to `CP(=O)(O)CC[C@H]1O[C@H](Oc2ccccc2)[C@@H](O)[C@@H](O)[C@@H]1O` [Compound A44, methyl(2-((2R,3S,4S,5S,6R)-3,4,5-trihydroxy-6-phenoxytetrahydro-2H-pyran-2-yl)ethyl)phosphinic acid], 10 to 100 µM.
To `COc1ccc(OC2O[C@H](CCP(=O)(O)CC3=CCCC3)[C@@H](O)[C@H](O)[C@@H]2O)cc1` (stereo partly drawn) [Compound A78, (cyclopent-1-en-1-ylmethyl) (2-((2R,3S,4S,5S)-3,4,5-trihydroxy-6-(4-methoxyphenoxy)tetrahydro-2H-pyran-2-yl)ethyl)phosphinic acid] belongs less than 10 µM.
`COc1ccc(OC2O[C@H](CCP(=O)(O)C(O)c3ccccc3)[C@@H](O)[C@H](O)[C@@H]2O)cc1` (stereo partly drawn) [Compound A74, (hydroxy (phenyl)methyl) (2-((2R,3S,4S,5S)-3,4,5-trihydroxy-6-(4-methoxyphenoxy)tetrahydro-2H-pyran-2-yl)ethyl)phosphinic acid]: the half-inhibitory concentration (IC50) is less than 10 µM.
With `O=P(O)(CC[C@H]1O[C@H](Oc2ccccc2)[C@@H](O)[C@@H](O)[C@@H]1O)Cc1ccccc1O` [Compound A46, (2-hydroxybenzyl) (2-((2R,3S,4S,5S,6R)-3,4,5-trihydroxy-6-phenoxytetrahydro-2H-pyran-2-yl)ethyl)phosphinic acid], the IC50 is less than 10 µM.

What is called IC50 is the concentration that inhibits the measured activity by half.
